Columns and labels:
[1] = target: MAP kinase-activated protein kinase 5 (Homo sapiens, UniProt Q8IW41); experiment: Inhibition of PRAK
[2] = target: T1, Receptor-type tyrosine-protein kinase FLT3 (Homo sapiens, UniProt P36888); experiment: Inhibition of FLT3
T1 sequence (P36888 whole entry): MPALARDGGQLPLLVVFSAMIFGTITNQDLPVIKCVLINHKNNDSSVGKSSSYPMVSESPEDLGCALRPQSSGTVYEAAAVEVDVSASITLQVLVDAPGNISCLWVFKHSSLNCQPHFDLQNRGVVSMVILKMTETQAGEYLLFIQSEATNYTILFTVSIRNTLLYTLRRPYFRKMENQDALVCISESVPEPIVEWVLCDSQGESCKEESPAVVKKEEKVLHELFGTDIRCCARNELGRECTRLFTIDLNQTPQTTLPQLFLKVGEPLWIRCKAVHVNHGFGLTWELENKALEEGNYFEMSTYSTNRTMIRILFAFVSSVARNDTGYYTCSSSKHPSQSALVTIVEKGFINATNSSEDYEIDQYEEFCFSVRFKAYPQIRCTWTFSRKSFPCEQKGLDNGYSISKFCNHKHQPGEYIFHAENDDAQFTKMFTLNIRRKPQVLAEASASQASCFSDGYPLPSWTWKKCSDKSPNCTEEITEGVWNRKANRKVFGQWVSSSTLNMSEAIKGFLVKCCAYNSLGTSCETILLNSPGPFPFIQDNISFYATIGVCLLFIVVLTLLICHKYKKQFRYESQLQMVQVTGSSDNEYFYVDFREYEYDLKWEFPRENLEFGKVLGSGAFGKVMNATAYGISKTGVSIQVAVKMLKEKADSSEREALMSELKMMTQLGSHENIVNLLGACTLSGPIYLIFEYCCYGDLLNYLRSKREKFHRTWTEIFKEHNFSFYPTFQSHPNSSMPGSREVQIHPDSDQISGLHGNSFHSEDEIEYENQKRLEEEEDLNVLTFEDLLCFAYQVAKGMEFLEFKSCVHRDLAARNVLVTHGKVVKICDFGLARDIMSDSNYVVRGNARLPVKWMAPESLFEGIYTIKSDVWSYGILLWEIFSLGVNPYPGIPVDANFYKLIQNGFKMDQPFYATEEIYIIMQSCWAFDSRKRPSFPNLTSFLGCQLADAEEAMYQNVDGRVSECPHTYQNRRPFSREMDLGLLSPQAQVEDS

[3] = target: Ephrin type-B receptor 2 (Homo sapiens, UniProt P29323); experiment: Inhibition of EPHB2
Ephrin type-B receptor 2, sequence (P29323 whole entry): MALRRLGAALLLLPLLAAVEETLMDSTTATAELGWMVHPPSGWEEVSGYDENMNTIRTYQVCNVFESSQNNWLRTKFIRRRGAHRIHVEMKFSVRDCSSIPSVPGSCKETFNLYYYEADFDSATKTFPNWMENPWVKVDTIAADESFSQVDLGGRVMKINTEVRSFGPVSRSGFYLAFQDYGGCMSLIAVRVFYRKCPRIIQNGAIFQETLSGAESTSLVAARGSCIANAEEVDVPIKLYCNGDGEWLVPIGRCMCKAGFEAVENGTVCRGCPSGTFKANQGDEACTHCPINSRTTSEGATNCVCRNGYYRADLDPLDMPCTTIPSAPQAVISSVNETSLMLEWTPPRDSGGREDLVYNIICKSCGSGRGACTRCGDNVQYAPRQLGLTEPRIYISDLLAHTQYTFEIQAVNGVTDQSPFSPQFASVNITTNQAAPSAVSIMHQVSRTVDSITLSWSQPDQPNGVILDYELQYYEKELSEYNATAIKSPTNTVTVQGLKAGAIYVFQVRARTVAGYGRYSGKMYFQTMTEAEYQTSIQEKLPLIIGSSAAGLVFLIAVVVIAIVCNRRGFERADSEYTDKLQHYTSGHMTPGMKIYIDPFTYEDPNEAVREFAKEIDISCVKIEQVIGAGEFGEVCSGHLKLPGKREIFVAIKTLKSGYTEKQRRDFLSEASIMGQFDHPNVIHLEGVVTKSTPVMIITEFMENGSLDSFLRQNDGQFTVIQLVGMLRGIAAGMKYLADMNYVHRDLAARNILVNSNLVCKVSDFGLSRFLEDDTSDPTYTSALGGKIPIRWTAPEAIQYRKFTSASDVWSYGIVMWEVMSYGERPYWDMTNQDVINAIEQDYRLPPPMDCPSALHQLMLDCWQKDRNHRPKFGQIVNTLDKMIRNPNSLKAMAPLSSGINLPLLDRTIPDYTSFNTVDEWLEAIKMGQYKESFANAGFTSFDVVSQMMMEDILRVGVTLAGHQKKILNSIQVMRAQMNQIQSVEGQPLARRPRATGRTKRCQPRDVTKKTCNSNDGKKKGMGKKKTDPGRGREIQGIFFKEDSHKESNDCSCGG

MAP kinase-activated protein kinase 5, sequence (Q8IW41 whole entry): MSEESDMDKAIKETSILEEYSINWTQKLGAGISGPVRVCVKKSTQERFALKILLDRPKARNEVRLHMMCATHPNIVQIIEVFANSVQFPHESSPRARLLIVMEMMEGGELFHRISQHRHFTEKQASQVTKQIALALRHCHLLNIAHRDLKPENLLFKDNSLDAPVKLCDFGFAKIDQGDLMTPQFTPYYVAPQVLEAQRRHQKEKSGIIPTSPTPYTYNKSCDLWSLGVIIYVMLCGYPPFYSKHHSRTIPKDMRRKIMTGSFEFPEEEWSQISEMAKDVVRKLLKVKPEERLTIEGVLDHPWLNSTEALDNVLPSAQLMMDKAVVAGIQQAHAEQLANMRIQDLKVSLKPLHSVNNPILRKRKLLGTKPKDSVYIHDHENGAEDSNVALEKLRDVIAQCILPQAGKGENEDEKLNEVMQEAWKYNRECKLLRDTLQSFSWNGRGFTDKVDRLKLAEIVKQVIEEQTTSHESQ

- Ki [1]: > 1000 nM
- Ki [2]: 20 nM
- Ki [3]: > 1000 nM
Structure (SMILES): CNc1cncc(-c2c[nH]c(=O)c(NC(=O)c3ccc(N4CCC[C@H]4CN4CCCC4)cc3)c2)n1

Reference: ChEMBL document CHEMBL1765075, “Discovery and structure-activity relationship of 3-aminopyrid-2-ones as potent and selective interleukin-2 inducible T-cell kinase (Itk) inhibitors” (J Med Chem, 2011)
